These results are taken from patent US20050032873A1, “3-Amino chroman and 2-amino tetralin derivatives” (Wyeth, priority 2003, published 2005).

Molecules are shown by their SMILES. Like-named read-outs stand apart in the source and are kept apart here.

The Ki is a dissociation constant, usually derived from enzyme kinetics or from competition with a known ligand. By EC50 is commonly meant the concentration giving half of the maximal effect. Read a high EC50 as lower potency in that assay. For orientation: IC50 means the midpoint of a concentration-inhibition curve.

Experiment [1] addresses T1, serotonin transporter (Rattus norvegicus, UniProt P31652).
T1 construct: displace ^3H-paroxetine from male rat cortical membranes; from tissue; host or cells: male rat cortical membranes
Briefly: 5-HT transporter affinity: displacement of 3H-paroxetine from male rat cortical membranes. Type of experiment: binding. Conditions: for Ki: displacement of 3H-paroxetine, male rat cortical membranes, read-out: 5-HT Transporter Affinity Ki. For orientation: Loss of bound radioactivity is the signal in a displacement assay; it reports binding, not function.

The target of experiment [2] is T2, 5-HT1A receptor (Homo sapiens, UniProt P08908).
T2 sequence (P08908 1-422): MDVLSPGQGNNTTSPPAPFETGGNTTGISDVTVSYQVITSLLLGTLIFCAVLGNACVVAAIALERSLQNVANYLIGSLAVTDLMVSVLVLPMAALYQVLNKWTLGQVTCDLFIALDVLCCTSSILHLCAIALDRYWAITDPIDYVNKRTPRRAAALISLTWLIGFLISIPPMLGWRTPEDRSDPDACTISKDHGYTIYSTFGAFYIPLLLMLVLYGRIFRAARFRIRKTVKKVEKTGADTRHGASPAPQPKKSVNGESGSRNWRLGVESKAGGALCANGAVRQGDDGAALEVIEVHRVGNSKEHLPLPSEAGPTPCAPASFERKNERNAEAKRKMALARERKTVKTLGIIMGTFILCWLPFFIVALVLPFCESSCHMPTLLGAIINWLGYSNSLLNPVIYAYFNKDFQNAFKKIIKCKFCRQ
Briefly: cAMP accumulation assay, 5-HT1A function. Type of experiment: cell-based. As to conditions: for EC50: cells marked EC50 (agonist); for Emax / 5-HT1A Function cAMP (Emax): in brackets after EC50 or IC50; for Emax: read-out: 5-HT1A Function cAMP (Emax); for IC50: cells marked IC50 (antagonist), read-out: 5-HT1A Function cAMP IC50. Background: cAMP levels reflect the balance of adenylyl cyclase and phosphodiesterase activity.

Experiment [3] deals with T2, 5-HT1A receptor. Nature of the experiment: 5-HT1A receptor affinity: displacement of [3H] 8-OH-DPAT. The format is binding. Further details: expressed in transfected cells. Conditions: displacement of [3H] 8-OH-DPAT; CHO cells stably transfected with human 5-HT1A receptors; read-out: 5-HT1A Receptor Affinity Ki.
Experiment [4] deals with T3, cloned human 5-HT1A receptors (Homo sapiens, UniProt P08908).
T3 construct: expressed in transfected cells
T3 sequence (P08908 1-422): T2 sequence (P08908 1-422)
Nature of the experiment: 35S-GTPγS binding assay, 5-HT1A function. Type of experiment: biochemical. As to conditions: for EC50: agonist potency; for IC50: antagonist potency, reversal of 8-OH-DPAT, read-out: 5-HT1A Function GTPγS IC50.
Excerpt: The agonist or antagonist activity at 5-HT1A receptors was established by using two different assays. […] Agonists produce an increase in binding whereas antagonists produce no increase but rather reverse the effects of the standard agonist 8-OH-DPAT. The test compound's maximum stimulatory effect is represented as the Emax, while its potency is defined by the EC50. The test compound's maximum inhibitory effect is represented as the Imax, while its potency is defined by the IC50. The second assay measured cAMP accumulation upon binding of the ligand to the 5-HT1A receptor. […] The test compound's maximum stimulatory or inhibitory effect is represented as the Emax while its potency is defined by either IC50 for an antagonist or EC50 for an agonist. [^3H]-8-OH-DPAT was used to determine maximum agonist or antagonist response in both functional assays.

The mark [5] stands for this setting: maximum stimulatory effect, in brackets after EC50, read-out: 5-HT1A Function GTPγS (Emax).
The mark [6] stands for this setting: maximum inhibitory effect, in brackets after IC50, read-out: 5-HT1A Function GTPγS (Imax).
[7] abbreviates: maximum inhibitory effect, in brackets after IC50.

T1 sequence (P31652 whole entry): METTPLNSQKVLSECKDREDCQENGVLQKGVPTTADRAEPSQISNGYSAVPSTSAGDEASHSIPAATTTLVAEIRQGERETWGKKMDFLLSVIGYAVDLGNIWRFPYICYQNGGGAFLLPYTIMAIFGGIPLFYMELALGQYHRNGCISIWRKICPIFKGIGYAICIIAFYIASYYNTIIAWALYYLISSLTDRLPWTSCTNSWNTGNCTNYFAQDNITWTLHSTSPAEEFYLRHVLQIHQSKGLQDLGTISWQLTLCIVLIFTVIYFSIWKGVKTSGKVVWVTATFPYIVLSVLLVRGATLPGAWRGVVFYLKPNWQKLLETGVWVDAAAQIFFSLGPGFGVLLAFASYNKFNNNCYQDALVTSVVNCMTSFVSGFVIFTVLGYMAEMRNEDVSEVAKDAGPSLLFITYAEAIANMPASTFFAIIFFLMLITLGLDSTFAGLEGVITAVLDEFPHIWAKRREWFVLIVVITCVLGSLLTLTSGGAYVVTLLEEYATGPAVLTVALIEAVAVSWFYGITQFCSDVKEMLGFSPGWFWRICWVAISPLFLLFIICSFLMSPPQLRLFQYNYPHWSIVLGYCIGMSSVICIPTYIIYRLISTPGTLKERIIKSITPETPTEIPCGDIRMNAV

For `CCN(CCCc1c[nH]c2c(F)cc(F)cc12)C1COc2c(C(N)=O)ccc(F)c2C1` (centres unmarked) [Compound 132, 3-[[3-(5,7-difluoro-1H-indol-3-yl)propyl](ethyl)amino]-5-fluorochromane-8-carboxamide], the inhibition constant Ki in experiment [1] was 50.3 nM; in experiment [3] it was 95.6 nM. Further, the EC50 in experiment [2] worked out at 112 nM; in experiment [4], 2210 nM. The Emax in experiment [2] worked out at 63%; in experiment [4] (setting [5]), 98%.
For `CCCN(C1COc2cccc(OC)c2C1)[C@H]1CC[C@H](c2c[nH]c3ccc(F)cc32)CC1` (relative stereo) [Compound 183, trans-N-[4-(5-fluoro-1H-indol-3-yl)cyclohexyl]-5-methoxy-N-propylchroman-3-amine], the “5-HT Transporter Affinity, % @ 1 μM” value in experiment [1] (@ 1 μM) amounted to 53% @ 1 μM. The EC50 in experiment [2] was determined as 302 nM; in experiment [4] it was 10000 nM. In addition, the Emax in experiment [2] stood at 65.5%; in experiment [4] (setting [5]) it was 35%. The Ki in experiment [3] worked out at 183 nM.
As for `CC(CCc1c[nH]c2ccc(F)cc12)N(CC1CC1)C1COc2c(F)ccc(C(N)=O)c2C1` (single isomer, unassigned; (-)) [Compound 15a, (−)-3-{(cyclopropylmethyl)[3-(5-fluoro-1H-indol-3-yl)-1-methylpropyl]amino}-8-fluorochromane-5-carboxamide], the inhibition constant Ki in experiment [1] is 10.2 nM; in experiment [3], 1.88 nM. The IC50 came out at 72.7 nM in experiment [2] and 333 nM in experiment [4]. The 5-HT1A Function cAMP (Emax) in experiment [2] came to 0%. The Emax in experiment [4] (setting [6]) worked out at 100%.
In the case of `COc1cccc2c(CCCCN(CC3CC3)C3COc4c(F)ccc(C(N)=O)c4C3)coc12` (centres unmarked) [Compound 170, 3-{(cyclopropylmethyl)[4-(7-methoxy-1-benzofuran-3-yl)butyl]amino}-8-fluorochromane-5-carboxamide], the inhibition constant (Ki) was 457 nM in experiment [1] and 0.72 nM in experiment [3]. The half-inhibitory concentration (IC50) worked out at 103 nM in experiment [2] and 158 nM in experiment [4]. For the same compound, the Emax came out at 0% in experiment [2] and 100% in experiment [4] (setting [6]).
With `COc1cccc2c(CCCN(CC3CC3)C3COc4c(F)ccc(C(N)=O)c4C3)coc12` (centres unmarked) [Compound 165, 3-{(cyclopropylmethyl)[3-(7-methoxy-1-benzofuran-3-yl)propyl]amino}-8-fluorochromane-5-carboxamide], the inhibition constant (Ki) in experiment [1] came to 913 nM; in experiment [3] it was 1.06 nM. The values for the 50% inhibitory concentration (IC50) in experiment [2] and in experiment [4] were 52.3 nM and 116 nM, respectively. The figures for the Emax in experiment [2], in experiment [4] (setting [6]) and in experiment [4] (setting [5]) were 0%, 91% and 22%, respectively. In addition, a half-maximal effect in experiment [4] (EC50) was put at 211 nM.
As for `CCN(CCCCn1ccc2cccc(F)c21)C1COc2c(F)ccc(C(N)=O)c2C1` (centres unmarked) [Compound 189, 3-{Ethyl[4-(7-fluoro-1H-indol-1-yl)butyl]amino}-8-fluorochromane-5-carboxamide], the Ki in experiment [1] came to 27.1 nM; in experiment [3], 37.4 nM. Further, the EC50 in experiment [2] stood at 286 nM. Further, the Emax in experiment [2] worked out at 77.5%; in experiment [4] (setting [6]), 100%. For the same compound, the IC50 in experiment [4] worked out at 233 nM.
Turning to `NC(=O)c1ccc(F)c2c1CC(N(CCc1c[nH]c3ccc(F)cc13)CC1CC1)CO2` (centres unmarked) [Compound 78, 3-{(cyclopropylmethyl)[2-(5-fluoro-1H-indol-3-yl)ethyl]amino}-8-fluorochromane-5-carboxamide], the results for the Ki in experiment [1] and in experiment [3] were 83 nM and 6.6 nM, respectively. Moreover, the IC50 came to 97.1 nM in experiment [2] and 384 nM in experiment [4]. The Emax in experiment [2] came out at 0%; in experiment [4] (setting [6]) it was 100%.
On to `CCCN(C(C)CCCc1c[nH]c2ccc(F)cc12)C1COc2c(F)ccc(C(N)=O)c2C1` (single isomer, unassigned; (+)) [Compound 14a, (+)-8-fluoro-3-[[4-(5-fluoro-1H-indol-3-yl)-1-methylbutyl](propyl)amino]chromane-5-carboxamide], for which the inhibition constant Ki in experiment [1] came to 13.6 nM; in experiment [3], 41.7 nM. In addition, the values for the half-maximal inhibitory concentration (IC50) in experiment [2] and in experiment [4] were 147 nM and 2210 nM, respectively. For the same compound, the Emax in experiment [2] turned out to be 0%. Besides, the 5-HT1A Function GTPγS (Imax) in experiment [4] (setting [7]) worked out at 59%.
Turning to `CCCN(CCCc1c[nH]c2ccc(F)cc12)[C@H]1CCc2cccc(OC)c2C1` [Compound 47a, (−)-N-[3-(5-fluoro-1H-indol-3-yl)propyl]-8-methoxy-N-propyl-1,2,3,4-tetrahydronaphthalen-2-amine], the Ki in experiment [1] came out at 0.83 nM; in experiment [3], 1.55 nM. The concentration for a half-maximal effect (EC50) was 7.61 nM in experiment [2] and 5.6 nM in experiment [4]. Besides, the values for the Emax in experiment [2] and in experiment [4] (setting [5]) were 99% and 80.5%, respectively.
In the case of `COC(=O)c1ccc(F)c2c1C[C@@H](NCCCCc1c[nH]c3ccc(F)cc13)CO2` [Compound 57b, methyl (3R)-8-fluoro-3-{[4-(5-fluoro-1H-indol-3-yl)butyl]amino}chromane-5-carboxylate], the inhibitory constant (Ki) in experiment [1] was 12.2 nM; in experiment [3] it was 19.4 nM. Also, the values for the EC50 in experiment [2] and in experiment [4] were 180 nM and 641 nM, respectively. Further, the Emax stood at 93% in experiment [2] and 100% in experiment [4] (setting [5]).
With `CNC(=O)c1ccc(F)c2c1CC(N(CCCCc1c[nH]c3ccc(F)cc13)C1CCC1)CO2` (centres unmarked) [Compound 95, 3-{cyclobutyl[4-(5-fluoro-1H-indol-3-yl)butyl]amino}-8-fluoro-N-methylchromane-5-carboxamide], the values for the inhibition constant Ki in experiment [1] and in experiment [3] were 6.4 nM and 10 nM, respectively. Besides, the results for the IC50 in experiment [2] and in experiment [4] were 121 nM and 422 nM, respectively. Besides, the figures for the Emax in experiment [2] and in experiment [4] (setting [6]) were 0% and 100%, respectively.
With `CCCN(C(C)CCc1c[nH]c2ccc(C#N)cc12)C1COc2c(F)ccc(C(N)=O)c2C1` (single isomer, unassigned) [Compound 13b, 3-[[3-(5-cyano-1H-indol-3-yl)-1-methylpropyl](propyl)amino]-8-fluoro-3,4-dihydro-2H-chromene-5-carboxamide], the Ki in experiment [1] is 37 nM; in experiment [3], 152 nM. In addition, the concentration for a half-maximal effect (EC50) in experiment [2] stood at 139 nM; in experiment [4], 1470 nM. The compound further had a 5-HT1A Function cAMP (Emax) in experiment [2] of 68%. Further, the Emax in experiment [4] (setting [5]) stood at 56.5%.
Turning to `CCN(CCCCc1c[nH]c2ccc(F)cc12)C1COc2cccc(OC)c2C1` (centres unmarked) [Compound 32, N-ethyl-N-[4-(5-fluoro-1H-indol-3-yl)butyl]-5-methoxychroman-3-amine], the Ki in experiment [1] was determined as 1.1 nM; in experiment [3], 2.78 nM. Besides, the EC50 turned out to be 85.4 nM in experiment [2] and 123 nM in experiment [4]. In addition, the Emax in experiment [2] worked out at 95%; in experiment [4] (setting [5]), 100%.
Turning to `NC(=O)c1ccc(F)c2c1CC(NCCCc1c[nH]c3ccc(Cl)cc13)CO2` (centres unmarked) [Compound 114, 3-{[3-(5-chloro-1H-indol-3-yl)propyl]amino}-8-fluorochromane-5-carboxamide], the Ki in experiment [1] came to 69.5 nM; in experiment [3], 97 nM. Further, the figures for the EC50 in experiment [2] and in experiment [4] were 244 nM and 1320 nM, respectively. For the same compound, the results for the Emax in experiment [2] and in experiment [4] (setting [5]) were 67.5% and 64%, respectively.
Consider `C[C@H](CCN(C1CCC1)[C@@H]1COc2c(F)ccc(C(N)=O)c2C1)c1c[nH]c2ccc(F)cc12` [Compound 152b, (3S)-3-{cyclobutyl[(3R)-3-(5-fluoro-1H-indol-3-yl)butyl]amino}-8-fluorochromane-5-carboxamide], for which the results for the inhibition constant Ki in experiment [1] and in experiment [3] were 182 nM and 322 nM, respectively. Besides, the IC50 turned out to be 727 nM in experiment [2] and 5000 nM in experiment [4]. For the same compound, the Emax was determined as 0% in experiment [2] and 50% in experiment [4] (setting [6]).
Consider `CCN(CCCc1c[nH]c2ccc(F)cc12)C1COc2c(F)ccc(C(N)=O)c2C1` (single isomer, unassigned; (-)) [Compound 3a, (−)-3-{ethyl[3-(5-fluoro-1H-indol-3-yl)propyl]amino}-8-fluoro-3,4-dihydro-2H-chromene-5-carboxamide], for which the values for the inhibition constant (Ki) in experiment [1] and in experiment [3] were 5 nM and 35.1 nM, respectively. Moreover, the figures for the half-inhibitory concentration (IC50) in experiment [2] and in experiment [4] were 135 nM and 1300 nM, respectively. The same compound had a 5-HT1A Function cAMP (Emax) in experiment [2] of 0%. For the same compound, the 5-HT1A Function GTPγS (Imax) in experiment [4] (setting [7]) turned out to be 79%.
Consider `NC(=O)c1ccc(F)c2c1CC(N(CCCc1c[nH]c3cc(F)ccc13)C1CCC1)CO2` (centres unmarked) [Compound 53, 3-{cyclobutyl[3-(6-fluoro-1H-indol-3-yl)propyl]amino}-8-fluorochromane-5-carboxamide], for which the results for the Ki in experiment [1] and in experiment [3] were 237 nM and 5.02 nM, respectively. The IC50 in experiment [2] came to 486 nM; in experiment [4] it was 512 nM. For the same compound, the Emax came out at 0% in experiment [2] and 100% in experiment [4] (setting [6]).
